The structures appear in SMILES notation. Converted amounts (≈) assume the structure as drawn. A value given as a limit tells only on which side of the number the result lay.

In series [1] the test system is Mycobacterium kansasii. Briefly: Antimycobacterial activity against Mycobacterium kansasii 6509/96 after 14 days by micromethod. As to conditions: 6509/96, 336 h. Format: functional.
The subject of series [2] is Mycobacterium tuberculosis. Briefly: Antimycobacterial activity against Mycobacterium tuberculosis CNCTC My 331/88 after 14 days by micromethod. Format: functional. As to conditions: CNCTC My 331/88, 336 h.
Series [3] can be described thus: Cytotoxicity against human HeLa cells assessed as cell viability at 30 uM after 48 hrs by MTT assay. The series is classed as cell-based. As to conditions: read-out: Activity. (In general: Tetrazolium dyes change colour on reduction, which living cells bring about.)
The subject of series [4] is Mycobacterium kansasii. Briefly: Antimycobacterial activity against Mycobacterium kansasii 6509/96 after 21 days by micromethod. The series is classed as functional. As to conditions: 6509/96, 504 h.
Series [5] in a line: Cytotoxicity against human HuH7 cells assessed as reduction in cell viability after 48 hrs by MTT assay. Format: cell-based. As to conditions: Huh-7, 48 h.
Series [6] relates to Mycobacterium tuberculosis. Briefly: Antimycobacterial activity against Mycobacterium tuberculosis CNCTC My 331/88 after 21 days by micromethod. The series is classed as functional. As to conditions: CNCTC My 331/88, 504 h.
The subject of series [7] is Mycobacterium kansasii. Kind of series: Antimycobacterial activity against Mycobacterium kansasii CNCTC My 235/80 after 14 days by micromethod. As to conditions: CNCTC My 235/80, 336 h. The series is classed as functional.
The nature of series [8]: Cytotoxicity against MDCK2 cells assessed as cell viability at 30 uM after 48 hrs by MTT assay. The series is classed as cell-based, Canis lupus familiaris, MDCK-II. As to conditions: dog, read-out: Activity.
Series [9] relates to Mycobacterium avium. Kind of series: Antimycobacterial activity against Mycobacterium avium CNCTC My 330/88 after 14 days by micromethod. The series is classed as functional. As to conditions: CNCTC My 330/88, 336 h.
For series [10], the system named is HepG2. Kind of series: Cytotoxicity against human HepG2 cells assessed as reduction in cell viability after 48 hrs by MTT assay. The series is classed as cell-based. As to conditions: HepG2, 48 h.
In series [11] the test system is Mycobacterium kansasii. Briefly: Antimycobacterial activity against Mycobacterium kansasii 6509/96 after 7 days by micromethod. The series is classed as functional. As to conditions: 6509/96, 168 h.
The nature of series [12]: Cytotoxicity against MDCK2 cells assessed as reduction in cell viability after 48 hrs by MTT assay. The series is classed as cell-based. As to conditions: Canis lupus familiaris, MDCK-II.
For series [13], the system named is Mycobacterium kansasii. Kind of series: Antimycobacterial activity against Mycobacterium kansasii CNCTC My 235/80 after 7 days by micromethod. Format: functional. As to conditions: CNCTC My 235/80, 168 h.
Series [14] deals with Mycobacterium avium. Briefly: Antimycobacterial activity against Mycobacterium avium CNCTC My 330/88 after 21 days by micromethod. The series is classed as functional. As to conditions: CNCTC My 330/88, 504 h.
In series [15] the test system is Mycobacterium kansasii. Kind of series: Antimycobacterial activity against Mycobacterium kansasii CNCTC My 235/80 after 21 days by micromethod. Format: functional. As to conditions: CNCTC My 235/80, 504 h.
A short description of series [16]: Cytotoxicity against human HepG2 cells assessed as cell viability at 30 uM after 48 hrs by MTT assay. Format: cell-based. As to conditions: read-out: Activity.
Series [17] can be described thus: Cytotoxicity against human HuH7 cells assessed as cell viability at 30 uM after 48 hrs by MTT assay. The series is classed as cell-based, Huh-7. As to conditions: read-out: Activity.
Series [18] deals with Lichtheimia corymbifera. Briefly: Antifungal activity against Absidia corymbifera 272 after 24 hrs by broth microdilution method. The series is classed as functional, organism-based. As to conditions: Lichtheimia corymbifera, 272, 24 h. (In general: Broth dilution looks for growth in wells or tubes with falling amounts of substance.)
The test system of series [19] is Aspergillus fumigatus. Kind of series: Antifungal activity against Aspergillus fumigatus 231 after 24 hrs by broth microdilution method. As to conditions: Aspergillus fumigatus, 231, 24 h. Format: functional, organism-based.
Series [20] relates to Pichia kudriavzevii. Kind of series: Antifungal activity against Candida krusei E28 after 24 hrs by broth microdilution method. Format: functional. As to conditions: E28, 24 h.
For series [21], the system named is Trichophyton mentagrophytes. Kind of series: Antifungal activity against Trichophyton mentagrophytes 445 after 72 hrs by broth microdilution method. Format: functional, organism-based. As to conditions: Trichophyton mentagrophytes, 445, 72 h.
The test system of series [22] is Candida tropicalis. Kind of series: Antifungal activity against Candida tropicalis 156 after 24 hrs by broth microdilution method. Format: functional. As to conditions: Candida tropicalis, 156, 24 h.
The subject of series [23] is Trichosporon asahii. Briefly: Antifungal activity against Trichosporon asahii 1188 after 24 hrs by broth microdilution method. Format: functional. As to conditions: Trichosporon asahii, 1188, 24 h.
In series [24] the test system is Candida albicans. Briefly: Antifungal activity against Candida albicans ATCC 44859 after 24 hrs by broth microdilution method. As to conditions: ATCC 44859, 24 h. The series is classed as functional.
Series [25] has as its system HeLa. Kind of series: Cytotoxicity against human HeLa cells assessed as reduction in cell viability after 48 hrs by MTT assay. The series is classed as cell-based.

Consider `COc1ccc(-n2nnnc2SCc2cc([N+](=O)[O-])cc([N+](=O)[O-])c2)cc1`, for which the MIC in series [1] amounted to 1 µM (≈ 0.388 µg/mL); in series [2] it was 2 µM (≈ 0.777 µg/mL); in series [4] it was 2 µM (≈ 0.777 µg/mL); in [6], 4 µM (≈ 1.55 µg/mL); in [7], 4 µM (≈ 1.55 µg/mL); in series [9] it was 16 µM (≈ 6.21 µg/mL). The MIC in series [11] is 1 µM (≈ 0.388 µg/mL); in series [13], 1 µM (≈ 0.388 µg/mL); in [14] it was 32 µM (≈ 12.4 µg/mL); in series [15], 4 µM (≈ 1.55 µg/mL). Further, the viability at 48 h, 30 µM in series [3] was 39%; in [8], 123%; in [16], 90%; in series [17] it was 86%. The concentration for half-maximal inhibition (IC50) in [5], in series [10] and in series [12] was more than 30 µM in each case.
With `OC(Cn1cncn1)(Cn1cncn1)c1ccc(F)cc1F` [FLUCONAZOLE], the results for the 50% inhibitory concentration (IC50) in series [18], in [19] and in [21] were more than 500 µM, more than 500 µM and 105 µM, respectively. Also, the concentration for an effect of 80% (IC80) in [20] was 105 µM; in series [22], 1.6 µM; in series [23] it was 210 µM; in [24], 0.82 µM.
For `O=[N+]([O-])c1ccc(CSc2nnnn2C2CCCCC2)c([N+](=O)[O-])c1`, the minimum inhibitory concentration (MIC) worked out at 62 µM (≈ 22.6 µg/mL) in series [1]; 8 µM (≈ 2.92 µg/mL) in series [2]; 62 µM (≈ 22.6 µg/mL) in series [4]; 16 µM (≈ 5.83 µg/mL) in series [6]; 8 µM (≈ 2.92 µg/mL) in series [7]; 16 µM (≈ 5.83 µg/mL) in series [9]. The minimum inhibitory concentration (MIC) worked out at 16 µM (≈ 5.83 µg/mL) in series [11], 4 µM (≈ 1.46 µg/mL) in series [13], 32 µM (≈ 11.7 µg/mL) in series [14] and 16 µM (≈ 5.83 µg/mL) in [15]. Further, the viability at 48 h, 30 µM stood at 61% in [3], 28% in series [8], 47% in [16] and 97% in series [17]. Besides, the IC50 was more than 30 µM in series [5], 16 µM in series [10], 17 µM in series [12] and more than 30 µM in series [25].
Take `COc1ccc(-n2nnnc2[Se]Cc2cc([N+](=O)[O-])cc([N+](=O)[O-])c2)cc1`: the MIC in series [1] amounted to 4 µM (≈ 1.74 µg/mL); in series [2], 1 µM (≈ 0.435 µg/mL); in series [4], 8 µM (≈ 3.48 µg/mL); in series [6] it was 1 µM (≈ 0.435 µg/mL); in series [7] it was 2 µM (≈ 0.871 µg/mL); in [9], 32 µM (≈ 13.9 µg/mL). Further, the minimal inhibitory concentration (MIC) came to 2 µM (≈ 0.871 µg/mL) in series [11], 1 µM (≈ 0.435 µg/mL) in [13], 32 µM (≈ 13.9 µg/mL) in series [14] and 2 µM (≈ 0.871 µg/mL) in series [15]. Further, the viability at 48 h, 30 µM in [3] came to 78%; in [8] it was 9%; in series [16], 17%; in series [17], 72%. For the same molecule, the IC50 in series [5] is more than 30 µM; in series [10], 19 µM; in series [12] it was less than 7.5 µM; in series [25], more than 30 µM.
For `O=[N+]([O-])c1cc(C[S+]([O-])c2nnnn2C2CCCCC2)cc([N+](=O)[O-])c1` (stereo unspecified), the MIC turned out to be 16 µM (≈ 6.09 µg/mL) in series [1]; 8 µM (≈ 3.04 µg/mL) in series [2]; 32 µM (≈ 12.2 µg/mL) in series [4]; 16 µM (≈ 6.09 µg/mL) in [6]; 16 µM (≈ 6.09 µg/mL) in [7]; 125 µM (≈ 47.5 µg/mL) in [9]. The minimum inhibitory concentration (MIC) in series [11] was 4 µM (≈ 1.52 µg/mL); in series [13] it was 4 µM (≈ 1.52 µg/mL); in [14], 125 µM (≈ 47.5 µg/mL); in series [15] it was 62 µM (≈ 23.6 µg/mL). The viability at 48 h, 30 µM in series [3] turned out to be 62%; in series [8] it was 52%; in series [16] it was 42%; in series [17] it was 84%. Moreover, the half-maximal inhibitory concentration (IC50) in series [5] was more than 30 µM; in series [10] it was 23 µM; in series [12], more than 30 µM; in series [25], more than 30 µM.
As to `O=[N+]([O-])c1cc(CS(=O)(=O)c2nnnn2C2CCCCC2)cc([N+](=O)[O-])c1`, the minimal inhibitory concentration (MIC) came to 16 µM (≈ 6.34 µg/mL) in series [1]; 2 µM (≈ 0.793 µg/mL) in series [2]; 16 µM (≈ 6.34 µg/mL) in series [4]; 4 µM (≈ 1.59 µg/mL) in series [6]; 16 µM (≈ 6.34 µg/mL) in series [7]; 32 µM (≈ 12.7 µg/mL) in series [9]. Also, the MIC in series [11] was 8 µM (≈ 3.17 µg/mL); in [13] it was 8 µM (≈ 3.17 µg/mL); in [14], 62 µM (≈ 24.6 µg/mL); in series [15], 16 µM (≈ 6.34 µg/mL). The viability at 48 h, 30 µM turned out to be 22% in series [3], 18% in series [8], 10% in series [16] and 43% in series [17]. Also, the half-inhibitory concentration (IC50) in series [5] is 28 µM; in [10], 9 µM; in series [12], less than 7.5 µM; in series [25] it was 21 µM.
For the molecule `CC(=O)SCc1cc([N+](=O)[O-])cc([N+](=O)[O-])c1`, the minimal inhibitory concentration (MIC) in [1] turned out to be 125 µM (≈ 32 µg/mL); in [2], 8 µM (≈ 2.05 µg/mL); in [4], 500 µM (≈ 128 µg/mL); in [6] it was 16 µM (≈ 4.1 µg/mL); in series [7], 32 µM (≈ 8.2 µg/mL); in series [9] it was 62 µM (≈ 15.9 µg/mL). In addition, the minimal inhibitory concentration (MIC) is 62 µM (≈ 15.9 µg/mL) in [11], 16 µM (≈ 4.1 µg/mL) in series [13], 125 µM (≈ 32 µg/mL) in [14] and 125 µM (≈ 32 µg/mL) in series [15].

As a reminder, the MIC is the lowest concentration that inhibits growth of the organism. Higher therefore signals a less susceptible organism. In general, IC50 refers to the concentration at which inhibition is half-maximal. By IC80 is commonly meant the concentration needed for an effect of 80%. Read a low IC80 as an effect from little substance.

The record behind these values is ChEMBL document CHEMBL3297661, “1-Substituted-5-[(3,5-dinitrobenzyl)sulfanyl]-1H-tetrazoles and their isosteric analogs: A new class of selective antitubercular agents active against drug-susceptible and multidrug-resistant mycobacteria” (Eur J Med Chem, 2014).
